These results are taken from patent US20230373989A1, “N-PHENYLAMINOCARBONYL PYRIDINO-, PYRIMIDINO AND BENZO-TROPANES AS MODULATORS OF GPR65” (PATHIOS THERAPEUTICS LIMITED, priority 2020, published 2023).

Where two headings read alike, the source gives them in different places. Where only a bound is given, the exact number is not on record here.

The target in this assay is T1, human recombinant GPR65 (Homo sapiens, UniProt Q8IYL9).
T1 construct: host or cells: 1321N1 human astrocytoma cells (1321N1-hrGPR65)
T1 sequence (Q8IYL9 whole entry): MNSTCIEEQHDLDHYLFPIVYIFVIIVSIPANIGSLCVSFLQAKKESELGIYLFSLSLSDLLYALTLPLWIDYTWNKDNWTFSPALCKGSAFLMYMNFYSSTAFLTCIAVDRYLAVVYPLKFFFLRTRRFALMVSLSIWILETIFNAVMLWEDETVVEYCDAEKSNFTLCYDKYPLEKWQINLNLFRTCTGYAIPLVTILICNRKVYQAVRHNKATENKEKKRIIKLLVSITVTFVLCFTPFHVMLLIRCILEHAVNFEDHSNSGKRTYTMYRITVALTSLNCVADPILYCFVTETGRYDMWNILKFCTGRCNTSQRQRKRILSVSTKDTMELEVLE
In words: Human GPR65 cAMP HTRF antagonist assay. Format: cell-based. The method in brief:
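1321N1 astrocytoma cells stably expressing GPR65 were preincubated with compound for 30 min at room temperature in KRH pH 7.6 with 1 mM IBMX and 200 μM EDTA. They were then stimulated at assay pH 7.2 for 30 min, with controls at pH 7.9. cAMP was read by HTRF (665/620 nm), normalised to controls and fitted by 4-parameter logistic to give IC50.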

Where [1] appears, read: 1321N1-hrGPR65 cells, assay pH 7.2, cAMP HTRF, read-out: hGPR65 IC50 (activity class).

Consider `O=C(Nc1cc(Cl)c(C(F)(F)F)cc1F)N1C2CCC1c1cnncc1C2` (racemic) [Compound 194, (±)-N-(5-Chloro-2-fluoro-4-(trifluoromethyl)phenyl)-6,7,8,9-tetrahydro-5H-5,8-epiminocyclohepta[d]pyridazine-10-carboxamide], for which the half-maximal inhibitory concentration (IC50) under setting [1] lay within 500 to 5000 nM.
Still for that read-out and setting: the result for `O=C(Nc1cc(Cl)c(C(F)(F)F)cc1F)N1C2CCC1c1c(Cl)nnc(Cl)c1C2` (racemic) [Compound 195, (±)-1,4-Dichloro-N-(5-chloro-2-fluoro-4-(trifluoromethyl)phenyl)-6,7,8,9-tetrahydro-5H-5,8-epiminocyclohepta[d]pyridazine-10-carboxamide] reads 500 to 5000 nM.
As to `O=C(Nc1ccc(C(F)(F)F)c(Cl)c1)N1[C@H]2CC[C@@H]1c1cncnc1C2` [Compound 38, (5R,8S)-N-(3-Chloro-4-(trifluoromethyl)phenyl)-6,7,8,9-tetrahydro-5H-5,8-epiminocyclohepta[d]pyrimidine-10-carboxamide], the 50% inhibitory concentration (IC50) was less than 500 nM.
Regarding `O=C(Nc1ccc(C(F)(F)F)c(Cl)c1)N1[C@@H]2CC[C@H]1c1cncnc1C2` [Compound 39, (5S,8R)-N-(3-Chloro-4-(trifluoromethyl)phenyl)-6,7,8,9-tetrahydro-5H-5,8-epiminocyclohepta[d]pyrimidine-10-carboxamide], under setting [1], the IC50 was greater than 5000 nM.
Regarding `O=C(Nc1ccc(Cl)c(C(F)(F)F)c1)N1[C@H]2CC[C@@H]1c1cncnc1C2` [Compound 42, (5R,8S)-N-(4-Chloro-3-(trifluoromethyl)phenyl)-6,7,8,9-tetrahydro-5H-5,8-epiminocyclohepta[d]pyrimidine-10-carboxamide], the half-inhibitory concentration (IC50) was less than 500 nM.
As to `O=C(Nc1ccc(C(F)(F)F)c(Cl)c1)N1[C@H]2CC[C@@H]1c1c[nH]c(=O)nc1C2` [Compound 43, (5R,8S)-N-(3-Chloro-4-(trifluoromethyl)phenyl)-2-oxo-3,5,6,7,8,9-hexahydro-2H-5,8-epiminocyclohepta[d]pyrimidine-10-carboxamide], the half-inhibitory concentration (IC50) was less than 500 nM.
`O=C(Nc1ccc(C(F)(F)F)c(Cl)c1)N1[C@@H]2CC[C@H]1c1c[nH]c(=O)nc1C2` [Compound 44, (5S,8R)-N-(3-Chloro-4-(trifluoromethyl)phenyl)-2-oxo-3,5,6,7,8,9-hexahydro-2H-5,8-epiminocyclohepta[d]pyrimidine-10-carboxamide]: the 50% inhibitory concentration (IC50) under setting [1] is greater than 5000 nM.
`O=C(Nc1ccc(Cl)c(Cl)c1)N1[C@H]2CC[C@@H]1c1cncnc1C2` [Compound 52, (5R,8S)-N-(3,4-Dichlorophenyl)-6,7,8,9-tetrahydro-5H-5,8-epiminocyclohepta[d]pyrimidine-10-carboxamide]: the IC50 is less than 500 nM.
`O=C(Nc1ccc(Cl)c(Cl)c1)N1[C@@H]2CC[C@H]1c1cncnc1C2` [Compound 53, (5S,8R)-N-(3,4-Dichlorophenyl)-6,7,8,9-tetrahydro-5H-5,8-epiminocyclohepta[d]pyrimidine-10-carboxamide]: the IC50 under setting [1] was greater than 5000 nM.
Consider `O=C(Nc1ccc(Cl)c(Cl)c1)N1[C@H]2CC[C@@H]1c1ccnc(F)c1C2` [Compound 78, (5R,8S)-N-(3,4-Dichlorophenyl)-1-fluoro-6,7,8,9-tetrahydro-5H-5,8-epiminocyclohepta[c]pyridine-10-carboxamide], for which the half-inhibitory concentration (IC50) was less than 500 nM.
The same measure, in the same setting: the same measure for `O=C(Nc1cc(Cl)c(Cl)cc1F)N1[C@H]2CC[C@@H]1c1ccnc(F)c1C2` [Compound 79, (5R,8S)-N-(4,5-Dichlroo-2-fluorophenyl)-1-fluoro-6,7,8,9-tetrahydro-5H-5,8-epiminocyclohepta[c]pyridine-10-carboxamide]: less than 500 nM; for `O=C(Nc1ccc(C(F)(F)F)c(Cl)c1)N1[C@H]2CC[C@@H]1c1ccnc(F)c1C2` [Compound 85, (5R,8S)-N-(3-Chloro-4-(trifluoromethyl)phenyl)-1-fluoro-6,7,8,9-tetrahydro-5H-5,8-epiminocyclohepta[c]pyridine-10-carboxamide]: less than 500 nM.
Turning to `COc1cc2c(cn1)[C@H]1CC[C@@H](C2)N1C(=O)Nc1ccc(Cl)c(Cl)c1` [Compound 86, (6S,9R)-N-(3,4-Dichlorophenyl)-3-methoxy-6,7,8,9-tetrahydro-5H-6,9-epiminocyclohepta[c]pyridine-10-carboxamide], the IC50 under setting [1] is greater than 5000 nM.
Regarding `N#Cc1cc(Cl)c(Cl)cc1NC(=O)N1[C@H]2CC[C@@H]1c1c[nH]c(=O)cc1C2` [Compound 88, (6S,9R)-N-(4,5-Dichloro-2-cyanophenyl)-3-oxo-3,5,6,7,8,9-hexahydro-2H-6,9-epiminocyclohepta[c]pyridine-10-carboxamide], the half-inhibitory concentration (IC50) is less than 500 nM.
Same read-out and setting: the result for `O=C(Nc1ccc(Cl)c(Cl)c1)N1[C@H]2CC[C@@H]1c1cnc(F)cc1C2` [Compound 91, (6S,9R)-N-(3,4-Dichlorophenyl)-3-fluoro-6,7,8,9-tetrahydro-5H-6.9-epiminocyclohepta[c]pyridine-10-carboxamide] reads less than 500 nM; that for `O=C(Nc1ccc(Cl)c(Cl)c1)N1[C@H]2CC[C@@H]1c1cc[n+]([O-])cc1C2` [Compound 92], less than 500 nM.
Same read-out and setting: the same measure for `O=C(Nc1cc(Cl)c(C(F)(F)F)cc1F)N1[C@H]2CC[C@@H]1c1c[nH]c(=O)cc1C2` [Compound 93, (6S,9R)-N-(5-Chloro-2-fluoro-4-(trifluoromethyl)phenyl)-3-oxo-3,5,6,7,8,9-hexahydro-2H-6,9-epiminocyclohepta[c]pyridine-10-carboxamide]: less than 500 nM.
`O=C(Nc1cc(Cl)c(Cl)cc1F)N1[C@H]2CC[C@@H]1c1c[nH]c(=O)cc1C2` [Compound 94, (6S,9R)-N-(4,5-Dichloro-2-fluorophenyl)-3-oxo-3,5,6,7,8,9-hexahydro-2H-6,9-epiminocyclohepta[c]pyridine-10-carboxamide]: the IC50 is less than 500 nM.
As to `N#Cc1cc(Cl)c(Cl)cc1NC(=O)N1[C@H]2CC[C@@H]1c1ccnc(F)c1C2` [Compound 98, (5R,8S)-N-(4,5-Dichloro-2-cyanophenyl)-1-fluoro-6,7,8,9-tetrahydro-5H-5,8-epiminocyclohepta[c]pyridine-10-carboxamide], the IC50 is less than 500 nM.
Consider `O=C(Nc1cc(Cl)c(C(F)(F)F)cc1F)N1[C@H]2CC[C@@H]1c1ccnc(F)c1C2` [Compound 101, (5R,8S)-N-(5-Chloro-2-fluoro-4-(trifluoromethyl)phenyl)-1-fluoro-6,7,8,9-tetrahydro-5H-5.8-epiminocyclohepta[c]pyridine-10-carboxamide], for which the half-inhibitory concentration (IC50) is less than 500 nM.
Same read-out and setting: the result for `O=C(Nc1ccc(Cl)c(Cl)c1)N1[C@H]2CC[C@@H]1c1c[nH]c(=O)cc1C2` [Compound 103, (6S,9R)-N-(3,4-Dichlorophenyl)-3-oxo-3,5,6,7,8,9-hexahydro-2H-6,9-epiminocyclohepta[c]pyridine-10-carboxamide] reads less than 500 nM.
For the molecule `O=C(Nc1ccc(Cl)c(Cl)c1)N1[C@@H]2CC[C@H]1c1c[nH]c(=O)nc1C2` [Compound 105, (5S,8R)-N-(3,4-Dichlorophenyl)-2-oxo-3,5,6,7,8,9-hexahydro-2H-5,8-epiminocyclohepta[d]pyrimidine-10-carboxamide], the IC50 under setting [1] is greater than 5000 nM.
As to `O=C(Nc1ccc(Cl)c(Cl)c1)N1[C@H]2CC[C@@H]1c1c[nH]c(=O)nc1C2` [Compound 106, (5R,8S)-N-(3,4-Dichlorophenyl)-2-oxo-3,5,6,7,8,9-hexahydro-2H-5,8-epiminocyclohepta[d]pyrimidine-10-carboxamide], the IC50 is less than 500 nM.
Turning to `O=C(Nc1ccc(Cl)c(Cl)c1)N1[C@@H]2CC[C@H]1c1ccncc1C2` [Compound 107, (5S,8R)-N-(3,4-Dichlorophenyl)-6,7,8,9-tetrahydro-5H-5,8-epiminocyclohepta[c]pyridine-10-carboxamide], the IC50 under setting [1] was greater than 5000 nM.
Turning to `O=C(Nc1ccc(Cl)c(Cl)c1)N1[C@H]2CC[C@@H]1c1ccncc1C2` [Compound 108, (5R,8S)-N-(3,4-Dichlorophenyl)-6,7,8,9-tetrahydro-5H-5,8-epiminocyclohepta[c]pyridine-10-carboxamide], the half-maximal inhibitory concentration (IC50) was less than 500 nM.
In the case of `O=C(Nc1ccc(Cl)c(Cl)c1)N1[C@@H]2CC[C@H]1c1ccnc(F)c1C2` [Compound 110, (5S,8R)-N-(3,4-Dichlorophenyl)-1-fluoro-6,7,8,9-tetrahydro-5H-5,8-epiminocyclohepta[c]pyridine-10-carboxamide], under setting [1], the concentration for half-maximal inhibition (IC50) was greater than 5000 nM.
With `O=C(Nc1ccc(Cl)c(Cl)c1)N1[C@H]2CC[C@@H]1c1cnccc1C2` [Compound 111, (6S,9R)-N-(3,4-Dichlorophenyl)-6,7,8,9-tetrahydro-5H-6,9-epiminocycloheptan[c]pyridine-10-carboxamide], the IC50 under setting [1] lay within 500 to 5000 nM.
For the molecule `O=C(Nc1ccc(Cl)c(Cl)c1)N1[C@@H]2CC[C@H]1c1cnccc1C2` [Compound 112, (6R,9S)-N-(3,4-Dichlorophenyl)-6,7,8,9-tetrahydro-5H-6,9-epiminocyclohepta[c]pyridine-10-carboxamide], the IC50 under setting [1] was greater than 5000 nM.
Turning to `O=C(Nc1ccc(Cl)c(Cl)c1)N1[C@@H]2CC[C@H]1[C@H](F)c1ncncc12` [Compound 115, (5R,8S,9S)-N-(3,4-Dichlorophenyl)-9-fluoro-6,7,8,9-tetrahydro-5H-5,8-epiminocyclohepta[d]pyrimidine-10-carboxamide], under setting [1], the IC50 lay within 500 to 5000 nM.
On to `Cc1cc(Cl)c(Cl)cc1NC(=O)N1[C@H]2CC[C@@H]1c1ccnc(F)c1C2` [Compound 117, (5R,8S)-N-(4,5-Dichloro-2-methylphenyl)-1-fluoro-6,7,8,9-tetrahydro-5H-5,8-epiminocyclohepta[c]pyridine-10-carboxamide], for which the half-maximal inhibitory concentration (IC50) was less than 500 nM.
`COc1cc(Cl)c(Cl)cc1NC(=O)N1[C@H]2CC[C@@H]1c1ccnc(F)c1C2` [Compound 118, (5R,8S)—N-(4,5-dichloro-2-methoxyphenyl)-1-fluoro-6,7,8,9-tetrahydro-5H-5,8-epiminocyclohepta[c]pyridine-10-carboxamide]: the IC50 under setting [1] lay in the range of 500 to 5000 nM.
